Assay results from ChEMBL document CHEMBL1152604, “Design, synthesis and biological evaluation of tripeptide boronic acid proteasome inhibitors” (Bioorg Med Chem, 2009).

Legend:
[1] = Inhibition of chymotrypsin-like activity of mouse liver 20S proteasome
[2] = Inhibition of trypsin-like activity of mouse liver 20S proteasome
[3] = Inhibition of peptidylglutamyl peptide-hydrolyzing activity of mouse liver 20S proteasome
[4] = test system: HL-60; assay: Cytotoxicity against human HL60 cells after 72 hrs by MTT assay; assay type: functional, cell-based; settings: HL-60, 72 h
[5] = test system: U-266; assay: Cytotoxicity against human U266 cells after 72 hrs by MTT assay; assay type: functional, cell-based; settings: U-266, 72 h
[6] = test system: BGC-823; assay: Cytotoxicity against human BGC823 cells after 72 hrs by MTT assay; assay type: functional, cell-based; settings: BGC-823, 72 h
[7] = test system: BXPC-3; assay: Cytotoxicity against human BxPC3 cells after 72 hrs by MTT assay; assay type: functional, cell-based; settings: BXPC-3, 72 h

IC50 [1] | IC50 [2] | IC50 [3] | Structure (SMILES) | IC50 [4] | IC50 [5] | IC50 [6] | IC50 [7]
0.335 nM | > 20 nM | 5.39 nM | CC(C)C[C@@H](NC(=O)C(Cc1ccc(O)cc1)NC(=O)[C@H](Cc1ccccc1)NC(=O)c1cnccn1)B1O[C@@H]2[C@@H](C[C@H]3C[C@@H]2C3(C)C)O1 (some centres undefined) | – | – | – | –
0.295 nM | > 20 nM | 4.76 nM | CC(C)C[C@@H](NC(=O)[C@H](Cc1ccccc1)NC(=O)[C@H](Cc1ccc(O)cc1)NC(=O)c1cnccn1)B1O[C@@H]2[C@@H](C[C@H]3C[C@@H]2C3(C)C)O1 | – | – | – | –
0.22 nM | > 20 nM | > 20 nM | CC(C)C[C@@H](NC(=O)[C@H](Cc1ccccc1)NC(=O)[C@H](Cc1ccc2ccccc2c1)NC(=O)c1cnccn1)B1O[C@@H]2[C@@H](C[C@H]3C[C@@H]2C3(C)C)O1 | – | – | – | –
0.335 nM | > 20 nM | > 20 nM | CC(C)C[C@@H](NC(=O)[C@H](Cc1ccc2ccccc2c1)NC(=O)[C@H](Cc1ccc2ccccc2c1)NC(=O)c1cnccn1)B(O)O | 19.6 nM | 195 nM | 2450 nM | 33.3 nM
0.495 nM | > 20 nM | > 20 nM | CC(C)C[C@@H](NC(=O)[C@H](Cc1ccc2ccccc2c1)NC(=O)[C@H](Cc1ccc2ccccc2c1)NC(=O)c1cnccn1)B1O[C@@H]2[C@@H](C[C@H]3C[C@@H]2C3(C)C)O1 | – | – | – | –
0.37 nM | > 20 nM | 3.91 nM | CC(C)C[C@H](NC(=O)c1cnccn1)C(=O)N[C@@H](Cc1ccc2ccccc2c1)C(=O)N[C@H](CC(C)C)B1O[C@@H]2[C@@H](C[C@H]3C[C@@H]2C3(C)C)O1 | – | – | – | –
0.443 nM | > 20 nM | > 20 nM | CC(C)C[C@@H](NC(=O)[C@H](Cc1ccc2ccccc2c1)NC(=O)[C@H](Cc1ccccc1)NC(=O)c1cnccn1)B1O[C@@H]2[C@@H](C[C@H]3C[C@@H]2C3(C)C)O1 | – | – | – | –
0.402 nM | > 20 nM | 8.33 nM | CC(C)C[C@@H](NC(=O)[C@H](Cc1ccccc1)NC(=O)[C@H](Cc1ccccc1)NC(=O)c1cnccn1)B1O[C@@H]2[C@@H](C[C@H]3C[C@@H]2C3(C)C)O1 | – | – | – | –
0.345 nM | > 20 nM | 14.1 nM | CC(C)C[C@H](NC(=O)[C@H](Cc1ccc2ccccc2c1)NC(=O)c1cnccn1)C(=O)N[C@H](CC(C)C)B1O[C@@H]2[C@@H](C[C@H]3C[C@@H]2C3(C)C)O1 | – | – | – | –

More lines, now with the values behind:

Structure (SMILES) | IC50 [1] | IC50 [2] | IC50 [3] | IC50 [4] | IC50 [5] | IC50 [6] | IC50 [7]
CC(C)C[C@@H](NC(=O)[C@H](Cc1ccc(O)cc1)NC(=O)[C@H](Cc1ccccc1)NC(=O)c1cnccn1)B(O)O | 0.395 nM | > 20 nM | 4.01 nM | 552 nM | 250 nM | 5140 nM | 445 nM
CC(C)C[C@H](NC(=O)[C@H](Cc1ccc2ccccc2c1)NC(=O)c1cnccn1)C(=O)N[C@H](CC(C)C)B(O)O | 0.22 nM | > 20 nM | 12.8 nM | 15 nM | 120 nM | 1720 nM | 43.5 nM
CC(C)C[C@H](NC(=O)c1cnccn1)C(=O)N[C@@H](Cc1ccccc1)C(=O)N[C@H](CC(C)C)B(O)O | 0.19 nM | > 20 nM | 5.14 nM | – | – | – | –
CC(C)C[C@H](NC(=O)c1cnccn1)C(=O)N[C@@H](CC(C)C)C(=O)N[C@H](CC(C)C)B1O[C@@H]2[C@@H](C[C@H]3C[C@@H]2C3(C)C)O1 | > 20 nM | > 20 nM | > 20 nM | – | – | – | –
CC(C)C[C@H](NC(=O)c1cnccn1)C(=O)N[C@@H](Cc1ccc2ccccc2c1)C(=O)N[C@H](CC(C)C)B(O)O | 0.079 nM | > 20 nM | 3.63 nM | 4.6 nM | 9.9 nM | 600 nM | 21.2 nM
CC(C)C[C@@H](NC(=O)[C@H](Cc1c[nH]c2ccccc12)NC(=O)[C@H](Cc1ccccc1)NC(=O)c1cnccn1)B1O[C@@H]2[C@@H](C[C@H]3C[C@@H]2C3(C)C)O1 | > 20 nM | > 20 nM | > 20 nM | – | – | – | –
CC(C)C[C@H](NC(=O)[C@H](Cc1ccccc1)NC(=O)c1cnccn1)B(O)O [BORTEZOMIB] | 0.161 nM | > 20 nM | > 20 nM | – | – | – | –
CC(C)C[C@H](NC(=O)[C@H](Cc1ccccc1)NC(=O)c1cnccn1)C(=O)N[C@H](CC(C)C)B(O)O | 0.173 nM | > 20 nM | 5.66 nM | – | – | – | –
CC(C)C[C@@H](NC(=O)[C@H](Cc1ccccc1)NC(=O)[C@H](Cc1ccc2ccccc2c1)NC(=O)c1cnccn1)B(O)O | 0.417 nM | > 20 nM | 4.43 nM | 10 nM | 53 nM | 2800 nM | 31.8 nM
CC(C)C[C@@H](NC(=O)[C@H](Cc1ccc2ccccc2c1)NC(=O)[C@H](Cc1ccccc1)NC(=O)c1cnccn1)B(O)O | 0.111 nM | > 20 nM | 3.8 nM | 7.4 nM | 15.8 nM | 1040 nM | 28.7 nM
CC(C)C[C@@H](NC(=O)[C@H](Cc1ccccc1)NC(=O)[C@H](Cc1ccc(O)cc1)NC(=O)c1cnccn1)B(O)O | 0.263 nM | > 20 nM | 2.5 nM | 445 nM | 66.2 nM | 2460 nM | 257 nM
CC(C)C[C@H](NC(=O)c1cnccn1)C(=O)N[C@@H](CC(C)C)C(=O)N[C@H](CC(C)C)B(O)O | > 20 nM | > 20 nM | > 20 nM | – | – | – | –
CC(C)C[C@@H](NC(=O)[C@H](Cc1c[nH]c2ccccc12)NC(=O)[C@H](Cc1ccccc1)NC(=O)c1cnccn1)B(O)O | > 20 nM | > 20 nM | > 20 nM | – | – | – | –
CC(C)C[C@@H](NC(=O)[C@H](Cc1ccccc1)NC(=O)[C@H](Cc1c[nH]c2ccccc12)NC(=O)c1cnccn1)B(O)O | > 20 nM | > 20 nM | > 20 nM | – | – | – | –
CC(C)C[C@@H](NC(=O)[C@H](Cc1ccccc1)NC(=O)[C@H](Cc1ccccc1)NC(=O)c1cnccn1)B(O)O | 0.546 nM | > 20 nM | 10.9 nM | – | – | – | –
CC(C)C[C@H](NC(=O)[C@H](Cc1ccccc1)NC(=O)c1cnccn1)C(=O)N[C@H](CC(C)C)B1O[C@@H]2[C@@H](C[C@H]3C[C@@H]2C3(C)C)O1 | 0.287 nM | > 20 nM | 2.73 nM | – | – | – | –
CC(C)C[C@@H](NC(=O)[C@H](Cc1ccccc1)NC(=O)[C@H](Cc1c[nH]c2ccccc12)NC(=O)c1cnccn1)B1O[C@@H]2[C@@H](C[C@H]3C[C@@H]2C3(C)C)O1 | > 20 nM | > 20 nM | > 20 nM | – | – | – | –
CC(C)C[C@H](NC(=O)c1cnccn1)C(=O)N[C@@H](Cc1ccccc1)C(=O)N[C@H](CC(C)C)B1O[C@@H]2[C@@H](C[C@H]3C[C@@H]2C3(C)C)O1 | 0.431 nM | > 20 nM | 3.4 nM | – | – | – | –
